# Legend:
# BACE1 [1] = target: T1, BACE1 (Homo sapiens, UniProt P56817); assay: In Vitro Enzymatic BACE FRET (Fluorescence Resonance Energy Transfer) Assay; format: biochemical
# In short: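 Buffer: 0.05 M acetate, pH 4.2, 10% DMSO final, 100 uM genapol. Start: FRET substrate 50 nM. Incubation 1 h. Stop: Tris to neutral pH. Read: fluorescence.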
# BACE1 [2] = target: T1, BACE1; assay: In Vitro BACE Cell-based Assay (HEK cell assay): Aβ40 in conditioned medium of cells stably expressing Amyloid Precursor Protein, sandwich ELISA
# In short: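 Read-out is time-resolved fluorescence of Aβ40 in supernatant, captured by pAb40 and detected with biotinylated 6E10 plus Streptavidin-Europium. Cells stably expressing APP received compounds for 24 h over 10 concentrations starting at 100 μM or 10 μM, final DMSO 0.1%.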
# [3] = in vitro BACE FRET enzyme assay, IC50 class symbols, read-out: BACE1 FRET assay
# [4] = HEK cell-based assay, Aβ40 in conditioned medium, IC50 class symbols, read-out: HEK cell assay
# [5] = HEK cells, read-out: HEK cell assay
# T1 sequence (P56817 46-501, species assumed): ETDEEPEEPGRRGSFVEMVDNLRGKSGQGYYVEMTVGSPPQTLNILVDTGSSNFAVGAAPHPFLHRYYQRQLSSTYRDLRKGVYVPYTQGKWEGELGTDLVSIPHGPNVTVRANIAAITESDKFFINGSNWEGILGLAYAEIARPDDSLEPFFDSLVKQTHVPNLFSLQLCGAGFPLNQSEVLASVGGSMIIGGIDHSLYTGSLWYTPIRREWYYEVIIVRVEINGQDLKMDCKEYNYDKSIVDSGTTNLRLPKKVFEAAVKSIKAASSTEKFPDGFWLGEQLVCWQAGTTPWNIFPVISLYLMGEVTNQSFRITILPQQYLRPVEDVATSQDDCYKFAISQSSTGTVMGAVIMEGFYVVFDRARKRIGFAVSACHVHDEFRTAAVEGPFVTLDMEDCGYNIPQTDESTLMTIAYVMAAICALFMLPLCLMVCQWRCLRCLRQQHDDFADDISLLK
Compound,IC50 (BACE1 [1]; [3]),IC50 (BACE1 [2]; [4]),other results
NC1=N[C@@]2(CO1)c1cc(-c3cccnc3F)ccc1Oc1ccc([C@H]3CCCCO3)cc12 [compound 365],< 0.1 µM,< 0.1 µM,
NC1=N[C@@]2(CO1)c1cc(-c3cccc(F)c3)ccc1Oc1cnc(-c3cccc(F)c3)cc12 [compound 366],< 0.1 µM,0.1 to 1 µM,
"NC1=N[C@@]2(CO1)c1cc(-c3cncc(F)c3)ccc1Oc1cnc(C3=CCOCC3)cc12 [compound 368, (5S)-3-(3,6-dihydro-2H-pyran-4-yl)-7-(5-fluoro-3-pyridinyl)spiro[chromeno[2,3-c]pyridine-5,4′-[1,3]oxazol]-2′-amine]",< 0.1 µM,< 0.1 µM,
NC1=N[C@@]2(CO1)c1cc(-c3cccnc3F)ccc1Oc1cnc(C3=CCCCO3)cc12 [compound 371],,,IC50 (BACE1 [1]; BACE1 FRET assay (uM)): < 0.1 µM; IC50 (BACE1 [2]; HEK cell assay (uM)): < 0.1 µM
N#Cc1ccc(-c2cc3c(cn2)Oc2ccc(-c4cccnc4F)cc2[C@@]32COC(N)=N2)cc1 [compound 372],< 0.1 µM,< 0.1 µM,
N#Cc1cccc(-c2cc3c(cn2)Oc2ccc(-c4cccnc4F)cc2[C@@]32COC(N)=N2)c1 [compound 373],< 0.1 µM,< 0.1 µM,
COc1ccc2c(c1)[C@]1(COC(N)=N1)c1cc(NC(=O)COc3ccccc3)ccc1O2 [compound 374],0.1 to 1 µM,1 to 5 µM,
COCC(=O)Nc1ccc2c(c1)[C@@]1(COC(N)=N1)c1cc(OCC(C)(C)C)ccc1O2 [compound 375],< 0.1 µM,0.1 to 1 µM,
CCOCC(=O)Nc1ccc2c(c1)[C@@]1(COC(N)=N1)c1cc(OC)ccc1O2 [compound 376],0.1 to 1 µM,0.1 to 1 µM,
NC1=N[C@@]2(CO1)c1cc(-c3cccnc3N3CCOCC3)ccc1Oc1ccc(N3CCOCC3)cc12 [compound 391],0.1 to 1 µM,1 to 5 µM,
NC1=N[C@@]2(CO1)c1cc(-c3cccnc3F)ccc1Oc1ccc(Cl)nc12 [compound 392],0.1 to 1 µM,0.1 to 1 µM,
NC1=N[C@@]2(CO1)c1cc(-c3cccnc3)ccc1Oc1cnc(N3CCN(CC(=O)O)CC3)cc12 [compound 396],< 0.1 µM,0.1 to 1 µM,
NC1=N[C@@]2(CO1)c1cc(-c3cccnc3F)ccc1Oc1ccc(-c3ccnc(F)c3)nc12 [compound 399],< 0.1 µM,0.1 to 1 µM,
NC1=N[C@@]2(CO1)c1cc(-c3cccnc3F)ccc1Oc1ccc(C3=CCOCC3)nc12 [compound 400],< 0.1 µM,< 0.1 µM,
Cc1cc(-c2ccc3c(n2)[C@]2(COC(N)=N2)c2cc(-c4cccnc4F)ccc2O3)ccn1 [compound 401],0.1 to 1 µM,< 0.1 µM,
NC1=N[C@@]2(CO1)c1cc(-c3cccnc3F)ccc1Oc1ccc(-c3ccncc3)nc12 [compound 402],< 0.1 µM,< 0.1 µM,
NC1=N[C@@]2(CO1)c1cc(-c3cccnc3F)ccc1Oc1ncc(-c3ccncc3)cc12 [compound 403],< 0.1 µM,< 0.1 µM,
NC1=N[C@@]2(CO1)c1cc(-c3cc(Cl)ccc3F)ccc1Oc1ncc(C3CCOCC3)cc12 [compound 404],< 0.1 µM,< 0.1 µM,
CC1(COc2cnc3c(c2)[C@]2(COC(N)=N2)c2cc(-c4ccccc4Cl)ccc2O3)COC1 [compound 414],< 0.1 µM,0.1 to 1 µM,
NC1=N[C@@]2(CO1)c1cc(-c3cccnc3)ccc1Oc1ccc(N3CCOC4(CC4)C3)cc12 [compound 419],,,IC50 (BACE1 [1]; read-out: BACE1 FRET assay): < 0.1 µM; IC50 (BACE1 [2]; [5]): < 0.1 µM
NC1=N[C@@]2(CO1)c1cc(-c3cncnc3)ccc1Oc1ccc([C@@H]3CCOC3)cc12 [compound 420],,,IC50 (BACE1 [1]; read-out: BACE1 FRET assay): < 0.1 µM; IC50 (BACE1 [2]; [5]): 0.1 to 1 µM
COCC[C@@H]1CN(c2ccc3c(c2)[C@]2(COC(N)=N2)c2cc(-c4cccnc4)ccc2O3)CCO1 [compound 421],,,IC50 (BACE1 [1]; read-out: BACE1 FRET assay): 0.1 to 1 µM; IC50 (BACE1 [2]; [5]): 0.1 to 1 µM
CC(C)C[C@@H]1CN(c2ccc3c(c2)[C@]2(COC(N)=N2)c2cc(-c4cncnc4)ccc2O3)CCO1 [compound 422],,,IC50 (BACE1 [1]; read-out: BACE1 FRET assay): 0.1 to 1 µM; IC50 (BACE1 [2]; [5]): 0.1 to 1 µM
NC1=N[C@@]2(CO1)c1cc(-c3cc(C4=CCOCC4)ccc3F)ccc1Oc1cnc(C3=CCOCC3)cc12 [compound 423],,,IC50 (BACE1 [1]; read-out: BACE1 FRET assay): < 0.1 µM; IC50 (BACE1 [2]; [5]): 0.1 to 1 µM
NC1=N[C@@]2(CO1)c1cc(-c3cc(Cl)ccc3F)ccc1Oc1cnc(C3=CCOCC3)cc12 [compound 424],,,IC50 (BACE1 [1]; read-out: BACE1 FRET assay): < 0.1 µM; IC50 (BACE1 [2]; [5]): < 0.1 µM
NC1=N[C@@]2(CO1)c1cc(-c3ccccc3F)ccc1Oc1cnc(Cl)cc12 [compound 425],,,IC50 (BACE1 [1]; read-out: BACE1 FRET assay): 0.1 to 1 µM; IC50 (BACE1 [2]; [5]): > 5 µM
NC1=N[C@@]2(CO1)c1cc(-c3ccccc3F)ccc1Oc1cnc(C3=CCOCC3)cc12 [compound 426],,,IC50 (BACE1 [1]; read-out: BACE1 FRET assay): < 0.1 µM; IC50 (BACE1 [2]; [5]): 0.1 to 1 µM

# Further lines, with some results ahead:
IC50 (BACE1 [1]; [3]),IC50 (BACE1 [2]; [4]),Compound,other results
0.1 to 1 µM,1 to 5 µM,COc1ccc2c(c1)[C@@]1(COC(N)=N1)c1cc(C3=CCOCC3)cc(F)c1O2 [compound 364],
< 0.1 µM,< 0.1 µM,NC1=N[C@@]2(CO1)c1cc(-c3cc(Cl)ccc3F)ccc1Oc1cnc(-c3cccnc3)cc12 [compound 367],
> 5 µM,1 to 5 µM,COc1ccc2c(c1)[C@]1(COC(N)=N1)c1cc(Br)cc(F)c1O2 [compound 377],
1 to 5 µM,> 5 µM,COc1ccc2c(c1)[C@@]1(COC(N)=N1)c1cc(Br)cc(F)c1O2 [compound 378],
< 0.1 µM,< 0.1 µM,CC(C)(C)/C=C/c1cnc2c(c1)[C@]1(COC(N)=N1)c1cc(-c3cncnc3)ccc1O2 [compound 379],
< 0.1 µM,< 0.1 µM,CC(C)(C)/C=C/c1cnc2c(c1)[C@]1(COC(N)=N1)c1cc(-c3cccnc3F)ccc1O2 [compound 380],
< 0.1 µM,< 0.1 µM,CC(C)(F)COc1cc(F)c2c(c1)[C@]1(COC(N)=N1)c1cc(-c3cccnc3)ccc1O2 [compound 381],
< 0.1 µM,< 0.1 µM,CC(C)(F)COc1cnc2c(c1)[C@]1(COC(N)=N1)c1cc(C#CC3CC3)ccc1O2 [compound 382],
< 0.1 µM,< 0.1 µM,COc1cncc(-c2ccc3c(c2)[C@@]2(COC(N)=N2)c2cc(OCC(C)(C)C)cnc2O3)c1 [compound 383],
< 0.1 µM,< 0.1 µM,CC(C)OC1CN(c2ccc3c(c2)[C@]2(COC(N)=N2)c2cc(-c4cccnc4)ccc2O3)C1 [compound 384],
< 0.1 µM,< 0.1 µM,"NC1=N[C@@]2(CO1)c1cc(-c3cccnc3F)ccc1Oc1c(F)cc(C3CCOCC3)cc12 [compound 385, (4S)-4′-fluoro-7′-(2-fluoro-3-pyridinyl)-2′-(tetrahydro-2H-pyran-4-yl)spiro[1,3-oxazole-4,9′-xanthen]-2-amine]",
< 0.1 µM,< 0.1 µM,NC1=N[C@@]2(CO1)c1cc(-c3cccnc3)ccc1Oc1c(F)cc(OCC(=O)C3CC3)cc12 [compound 387],
0.1 to 1 µM,1 to 5 µM,CC(C)(C)COc1cnc2c(c1)[C@]1(COC(N)=N1)c1cc(Br)ccc1O2 [compound 388],
< 0.1 µM,< 0.1 µM,CC(C)(C)COc1cnc2c(c1)[C@]1(COC(N)=N1)c1cc(-c3cncc(F)c3)ccc1O2 [compound 389],
< 0.1 µM,< 0.1 µM,Cc1cc(-c2ccc3c(c2)[C@]2(COC(N)=N2)c2cc(-c4cccnc4)ccc2O3)cc(=O)o1 [compound 390],
0.1 to 1 µM,1 to 5 µM,NC1=N[C@@]2(CO1)c1cc(-c3cccnc3)ccc1Oc1ccc(Cl)nc12 [compound 393],
< 0.1 µM,< 0.1 µM,CC(C)(C)/C=C/c1cc2c(cn1)Oc1ccc(-c3cccnc3)cc1[C@@]21COC(N)=N1 [compound 397],
< 0.1 µM,< 0.1 µM,CC(C)(C)/C=C/c1ccc2c(n1)[C@]1(COC(N)=N1)c1cc(-c3cccnc3)ccc1O2 [compound 398],
> 5 µM,> 5 µM,COc1ccc2c(c1)[C@@]1(COC(N)=N1)c1cc(Br)cc(F)c1O2 [compound 406],
< 0.1 µM,< 0.1 µM,CC(C)(C#N)COc1cnc2c(c1)[C@]1(COC(N)=N1)c1cc(-c3cc(F)ccc3F)ccc1O2 [compound 407],
< 0.1 µM,< 0.1 µM,CC(C)(C#N)COc1cnc2c(c1)[C@]1(COC(N)=N1)c1cc(-c3ccccc3F)ccc1O2 [compound 408],
< 0.1 µM,0.1 to 1 µM,CC(C)(C#N)COc1cnc2c(c1)[C@]1(COC(N)=N1)c1cc(-c3ccccc3)ccc1O2 [compound 409],
< 0.1 µM,< 0.1 µM,CC(C)(C#N)COc1cnc2c(c1)[C@]1(COC(N)=N1)c1cc(-c3cccnc3)ccc1O2 [compound 410],
< 0.1 µM,< 0.1 µM,CC1(COc2cnc3c(c2)[C@]2(COC(N)=N2)c2cc(-c4c(F)cccc4F)ccc2O3)COC1 [compound 411],
< 0.1 µM,< 0.1 µM,CC1(COc2cnc3c(c2)[C@]2(COC(N)=N2)c2cc(-c4cc(F)ccc4F)ccc2O3)COC1 [compound 412],
< 0.1 µM,< 0.1 µM,CC1(COc2cnc3c(c2)[C@]2(COC(N)=N2)c2cc(-c4cccc(F)c4F)ccc2O3)COC1 [compound 413],
< 0.1 µM,< 0.1 µM,CCOC1CN(c2ccc3c(c2)[C@]2(COC(N)=N2)c2cc(-c4cccnc4)ccc2O3)C1 [compound 415],
< 0.1 µM,< 0.1 µM,NC1=N[C@@]2(CO1)c1cc(-c3cccnc3F)ccc1Oc1c(F)cc(N3C[C@@H]4C[C@H]3CO4)cc12 [compound 416],
< 0.1 µM,< 0.1 µM,NC1=N[C@@]2(CO1)c1cc(-c3cncnc3)ccc1Oc1c(F)cc(OCC3CCOCC3)cc12 [compound 417],
< 0.1 µM,< 0.1 µM,NC1=N[C@@]2(CO1)c1cc(-c3cccnc3)ccc1Oc1c(F)cc(OCC3CCOCC3)cc12 [compound 418],

# — patent US8426447B2, “Spiro-tricyclic ring compounds as beta-secretase modulators and methods of use” (Amgen Inc., priority 2008, dated 2013)
